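These data come from cells grown in 96-well plates and exposed to compound for 48 hours at five concentrations. GI50: concentration for 50% inhibition of growth. The concentration for full growth arrest is given as TGI.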
Legend:
Test in all cases: NCI tumour cell line growth inhibition, 48 h
SF-268 CNS = tested on: SF-268 CNS
NCI-H522 lung = tested on: NCI-H522 lung
SF-539 CNS = tested on: SF-539 CNS
786-0 renal = tested on: 786-0 renal
PC-3 prostate = tested on: PC-3 prostate
HCT-116 colon = tested on: HCT-116 colon
OVCAR-5 ovarian = tested on: OVCAR-5 ovarian
MOLT-4 leukemia = tested on: MOLT-4 leukemia
SK-MEL-2 melanoma = tested on: SK-MEL-2 melanoma
CCRF-CEM leukemia = tested on: CCRF-CEM leukemia
OVCAR-4 ovarian = tested on: OVCAR-4 ovarian
UACC-62 melanoma = tested on: UACC-62 melanoma
SK-OV-3 ovarian = tested on: SK-OV-3 ovarian
OVCAR-8 ovarian = tested on: OVCAR-8 ovarian
SK-MEL-5 melanoma = tested on: SK-MEL-5 melanoma
HL-60(TB) leukemia = tested on: HL-60(TB) leukemia
M14 melanoma = tested on: M14 melanoma
COLO 205 colon = tested on: COLO 205 colon
SK-MEL-28 melanoma = tested on: SK-MEL-28 melanoma
HS 578T breast = tested on: HS 578T breast
SR leukemia = tested on: SR leukemia
SW-620 colon = tested on: SW-620 colon
LOX IMVI melanoma = tested on: LOX IMVI melanoma
SF-295 CNS = tested on: SF-295 CNS
ACHN renal = tested on: ACHN renal
MCF7 breast = tested on: MCF7 breast
T-47D breast = tested on: T-47D breast
U251 CNS = tested on: U251 CNS
SNB-19 CNS = tested on: SNB-19 CNS
HOP-62 NSCLC = tested on: HOP-62 NSCLC
HCC-2998 colon = tested on: HCC-2998 colon
BT-549 breast = tested on: BT-549 breast
MDA-MB-231 breast = tested on: MDA-MB-231 breast
RPMI-8226 leukemia = tested on: RPMI-8226 leukemia
MDA-MB-435 = tested on: MDA-MB-435
NCI/ADR-RES ovarian = tested on: NCI/ADR-RES ovarian
CAKI-1 renal = tested on: CAKI-1 renal
A549 NSCLC = tested on: A549 NSCLC
UO-31 renal = tested on: UO-31 renal
IGROV1 ovarian = tested on: IGROV1 ovarian
UACC-257 melanoma = tested on: UACC-257 melanoma
EKVX NSCLC = tested on: EKVX NSCLC
HT29 colon = tested on: HT29 colon
HOP-92 NSCLC = tested on: HOP-92 NSCLC
K-562 leukemia = tested on: K-562 leukemia
NCI-H226 lung = tested on: NCI-H226 lung
SNB-75 CNS = tested on: SNB-75 CNS
KM12 colon = tested on: KM12 colon
OVCAR-3 ovarian = tested on: OVCAR-3 ovarian
TK-10 renal = tested on: TK-10 renal
MALME-3M melanoma = tested on: MALME-3M melanoma
HCT-15 colon = tested on: HCT-15 colon
DU-145 prostate = tested on: DU-145 prostate
NCI-H23 lung = tested on: NCI-H23 lung
RXF 393 renal = tested on: RXF 393 renal
NCI-H460 lung = tested on: NCI-H460 lung
A498 renal = tested on: A498 renal
SN12C renal = tested on: SN12C renal

Compound: CN1CCN(Cc2ccc(NC(=O)c3cncc(C#Cc4cnc5ccc(O[C@@H]6CCOC6)nn45)c3)cc2C(F)(F)F)CC1
- GI50 (SF-268 CNS): 158 nM
- TGI (SF-268 CNS): 562 nM
- GI50 (NCI-H522 lung): 107 nM
- TGI (NCI-H522 lung): 277 nM
- GI50 (SF-539 CNS): 99.8 nM
- TGI (SF-539 CNS): 715 nM
- GI50 (786-0 renal): 265 nM
- TGI (786-0 renal): 833 nM
- GI50 (PC-3 prostate): 277 nM
- TGI (PC-3 prostate): 1210 nM
- GI50 (HCT-116 colon): 64.9 nM
- TGI (HCT-116 colon): 454 nM
- GI50 (OVCAR-5 ovarian): 223 nM
- TGI (OVCAR-5 ovarian): 883 nM
- GI50 (MOLT-4 leukemia): 81.8 nM
- TGI (MOLT-4 leukemia): 1320 nM
- GI50 (SK-MEL-2 melanoma): 114 nM
- TGI (SK-MEL-2 melanoma): 321 nM
- GI50 (CCRF-CEM leukemia): 75.1 nM
- TGI (CCRF-CEM leukemia): 3050 nM
- GI50 (OVCAR-4 ovarian): 155 nM
- TGI (OVCAR-4 ovarian): 940 nM
- GI50 (UACC-62 melanoma): 165 nM
- TGI (UACC-62 melanoma): 809 nM
- GI50 (SK-OV-3 ovarian): 449 nM
- TGI (SK-OV-3 ovarian): 1120 nM
- GI50 (OVCAR-8 ovarian): 160 nM
- TGI (OVCAR-8 ovarian): 634 nM
- GI50 (SK-MEL-5 melanoma): 586 nM
- TGI (SK-MEL-5 melanoma): 1220 nM
- GI50 (HL-60(TB) leukemia): 75.2 nM
- TGI (HL-60(TB) leukemia): 364 nM
- GI50 (M14 melanoma): 66.2 nM
- TGI (M14 melanoma): 181 nM
- GI50 (COLO 205 colon): 109 nM
- TGI (COLO 205 colon): 220 nM
- GI50 (SK-MEL-28 melanoma): 186 nM
- TGI (SK-MEL-28 melanoma): 813 nM
- GI50 (HS 578T breast): 127 nM
- TGI (HS 578T breast): 565 nM
- GI50 (SR leukemia): 82.3 nM
- TGI (SR leukemia): 490 nM
- GI50 (SW-620 colon): 153 nM
- TGI (SW-620 colon): 623 nM
- GI50 (LOX IMVI melanoma): 139 nM
- TGI (LOX IMVI melanoma): 635 nM
- GI50 (SF-295 CNS): 454 nM
- TGI (SF-295 CNS): 1180 nM
- GI50 (ACHN renal): 171 nM
- TGI (ACHN renal): 670 nM
- GI50 (MCF7 breast): 80.4 nM
- TGI (MCF7 breast): 580 nM
- GI50 (T-47D breast): 556 nM
- TGI (T-47D breast): 1310 nM
- GI50 (U251 CNS): 270 nM
- TGI (U251 CNS): 933 nM
- GI50 (SNB-19 CNS): 301 nM
- TGI (SNB-19 CNS): 1220 nM
- GI50 (HOP-62 NSCLC): 176 nM
- TGI (HOP-62 NSCLC): 641 nM
- GI50 (HCC-2998 colon): 260 nM
- TGI (HCC-2998 colon): 886 nM
- GI50 (BT-549 breast): 646 nM
- TGI (BT-549 breast): 1290 nM
- GI50 (MDA-MB-231 breast): 82.5 nM
- TGI (MDA-MB-231 breast): 475 nM
- GI50 (RPMI-8226 leukemia): 265 nM
- TGI (RPMI-8226 leukemia): 1260 nM
- GI50 (MDA-MB-435): 125 nM
- TGI (MDA-MB-435): 653 nM
- GI50 (NCI/ADR-RES ovarian): 676 nM
- TGI (NCI/ADR-RES ovarian): 1910 nM
- GI50 (CAKI-1 renal): 122 nM
- TGI (CAKI-1 renal): 596 nM
- GI50 (A549 NSCLC): 195 nM
- TGI (A549 NSCLC): 693 nM
- GI50 (UO-31 renal): 173 nM
- TGI (UO-31 renal): 682 nM
- GI50 (IGROV1 ovarian): 89.4 nM
- TGI (IGROV1 ovarian): 587 nM
- GI50 (UACC-257 melanoma): 531 nM
- TGI (UACC-257 melanoma): 1240 nM
- GI50 (EKVX NSCLC): 288 nM
- TGI (EKVX NSCLC): 942 nM
- GI50 (HT29 colon): 111 nM
- TGI (HT29 colon): 602 nM
- GI50 (HOP-92 NSCLC): 27.3 nM
- TGI (HOP-92 NSCLC): 117 nM
- GI50 (K-562 leukemia): 5 nM
- TGI (K-562 leukemia): 1790 nM
- GI50 (NCI-H226 lung): 47.8 nM
- TGI (NCI-H226 lung): 911 nM
- GI50 (SNB-75 CNS): 124 nM
- TGI (SNB-75 CNS): 510 nM
- GI50 (KM12 colon): 5 nM
- TGI (KM12 colon): 539 nM
- GI50 (OVCAR-3 ovarian): 194 nM
- TGI (OVCAR-3 ovarian): 768 nM
- GI50 (TK-10 renal): 177 nM
- TGI (TK-10 renal): 632 nM
- GI50 (MALME-3M melanoma): 61.3 nM
- TGI (MALME-3M melanoma): 294 nM
- GI50 (HCT-15 colon): 161 nM
- TGI (HCT-15 colon): 639 nM
- GI50 (DU-145 prostate): 187 nM
- TGI (DU-145 prostate): 642 nM
- GI50 (NCI-H23 lung): 178 nM
- TGI (NCI-H23 lung): 729 nM
- GI50 (RXF 393 renal): 143 nM
- TGI (RXF 393 renal): 405 nM
- GI50 (NCI-H460 lung): 182 nM
- TGI (NCI-H460 lung): 703 nM
- GI50 (A498 renal): 606 nM
- TGI (A498 renal): 1250 nM
- GI50 (SN12C renal): 120 nM
- TGI (SN12C renal): 636 nM

Source: PubChem BioAssay (NCI)
